Reference: patent US20130071368A1, “PREPARATION, USE OF PREPARATION FOR TREATMENT, AND METHOD OF TREATMENT OF INTESTINAL INFECTION” (FAYREFIELD FOODS LIMITED, priority 2007, published 2013)

Test system: C. difficile infection
Assay: Anecdotal treatment of patients with C. difficile infection
Assay type: in vivo, human
Conditions: patient, second presentation
Method: A patient was suffering severe symptoms of C. difficile infection, in spite of narrow-spectrum antibiotic treatment, for a period of approximately three months. The treatment protocol was then modified to include, additionally, the oral administration of cranberry puree and GOS at least once daily.
A further patient, presenting for the second time with symptoms of c. difficile was treated initially with metronidazole and then, subsequently, with vancomycin. […] At the point of administration of a mixture of galacto-oligosaccharide and cranberry puree the patient was recording 16 episodes of open bowel in a 24 hour period, was suffering from severe dehydration and was causing significant concern that death might imminently result.

Row | SMILES | effect of antibiotic treatment on symptoms of c. difficile
1 | CN[C@H](CC(C)C)C(=O)N[C@H]1C(=O)N[C@@H](CC(N)=O)C(=O)N[C@H]2C(=O)N[C@H]3C(=O)N[C@H](C(=O)N[C@H](C(=O)O)c4cc(O)cc(O)c4-c4cc3ccc4O)[C@H](O)c3ccc(c(Cl)c3)Oc3cc2cc(c3O[C@@H]2O[C@H](CO)[C@@H](O)[C@H](O)[C@H]2O[C@H]2C[C@](C)(N)[C@H](O)[C@H](C)O2)Oc2ccc(cc2Cl)[C@H]1O [vancomycin] | Neither treatment was having any effect
2 | Cc1ncc([N+](=O)[O-])n1CCO [metronidazole] | Neither treatment was having any effect
